Test results published in patent publication US20230058189A1, “QUINOLIN-4-ONE AND 4(1H)-CINNOLINONE COMPOUNDS AND METHODS OF USING SAME” (Frequency Therapeutics, Inc., priority 2019, published 2023).
≈ marks a conversion by molar mass, not a printed value.

Assays:
[1] = Thermodynamic aqueous solubility at pH 7.4; assay type: physicochemical; details: aqueous buffer, thermodynamic from solid, phosphate buffer pH 7.4, 25° C., approximate values, read-out: Concentration (thermodynamic aqueous solubility)
Protocol: The aqueous thermodynamic solubilities of the compounds of the present disclosure were measured at pH 7.4.
Determining suitability for use of a compound, e.g., as a therapeutic agent can include determining the thermodynamic solubility of the compound. An example of this determination follows: Accurately weigh about 1 mg of the powder of each compound into a glass insert vial and phosphate buffer into each vial of a capless Solubility Sample plate with the volume of 1 mL per mg. Next, add one stir stick to each vial and seal with a molded PTDE/SIL 96-Well Plate Cover. Transfer the Solubility Sample plate to an Eppendorf Thermomixer Comfort plate shaker and shake the plate at 25° C. at 1,100 rpm for 24 hours. At the end of the incubation, open the cover and remove the stir sticks using a big magnet and transfer the samples from the Solubility Sample plate into the filter plate. Using the vacuum manifold, all the samples were filtered. An aliquot of 100 μL was transferred from filtrate to a new 96-well plate by addition of 900 μL of a mixture of H2O and acetonitrile containing an internal standard (1:1) (10 fold) and 10 μL of the diluted solution was pipetted into a new 96-well plate by addition of 990 μL of a mixture of H2O and acetonitrile containing internal standard (1:1) (1,000 fold). The dilution factor may be changed according to the solubility value and the LC/MS signal response.
To prepare standards for the assay, accurately weigh about 1 mg of the powder of each compound into a glass insert vial, add DMSO into each vial of the Standard Plate with the volume of 1 mL per mg to obtain the 1 mg/mL STD sample. Aliquots of 10 μL were taken from 1 mg/mL STD sample to a new 96-well plate followed by addition of 990 μL of a mixture of H2O and acetonitrile containing internal standard (1:1) to obtain 10 μg/mL STD and then 10 μL aliquots were taken from 10 μg/mL sample to a new 96-well plate followed by addition of 990 μL of a mixture of H2O and acetonitrile containing internal standard (1:1) to obtain 0.1 μg/mL STD. The concentration of the standard sample may be changed according to the LC/MS signal response.
The samples were analyzed and quantified against the standard of known concentration using LC/MS/MS. The solubility of the test compound was calculated as follows: [Sample]=Area Ratio sample×DF sample×[STD]/Area Ratio STD DF means the dilution factor. Any value of the compounds that is not within the specified limits was rejected and the experiment was repeated.

[2] = Caco-2 cell permeability assay; assay type: in vitro ADME; details: human, pH 7.4, approximate values; for efflux ratio at 2 h, 10 µM: Caco-2, Papp (B-A)/Papp (A-B); for Papp A→B at 2 h, 10 μM: Caco-2, apical to basolateral
Protocol: A Caco-2 cell permeability assay can be used for in vitro prediction of drug permeability and absorption, an important feature for a compound to be useful for methods described herein. The apparent permeability (Papp) of the compounds of the present disclosure were determined in Caco-2 cells to measure the rate of drug transport per surface area of the cell membrane. Further the efflux ratios of the compounds of the present disclosure were measured in Caco-2 cells to determine the apparent permeability coefficient in basolateral to apical direction with respect to the apparent permeability coefficient in apical to basolateral direction.
50 μL and 25 mL of cell culture medium were added to each well of the Transwell insert and reservoir, respectively. The HTS transwell plates were incubated at 37° C., 5% CO2 for 1 hour before cell seeding. Caco-2 cells were diluted to 6.86×10^5 cells/mL with culture medium and 50 μL of cell suspension were dispensed into the filter well of the 96-well HTS Transwell plate. Cells were cultivated for 14-18 days in a cell culture incubator at 37° C., 5% CO295% relative humidity. Cell culture medium was replaced every other day, beginning no later than 24 hours after initial plating.
Medium was removed from the reservoir and each Transwell insert and replaced with prewarmed fresh culture medium. Transepithelial electrical resistance (TEER) across the monolayer was measured using Millicell Epithelial Volt-Ohm measuring system (Millipore, USA). The Plate was returned to the incubator once the measurement was done. The TEER value was calculated according to the following equation: TEER measurement (ohms)×Area of membrane (cm^2)=TEER value (ohm·cm^2).
To prepare the HBSS (25 mM HEPES, pH 7.4), accurately weigh 5.958 g of HEPES and 0.35 g sodium hydrogen carbonate and add into 900 mL of pure water, then sonicate to dissolve the content. Transfer 100 mL of 10× HBSS into the solution, and place the solution on a stirrer, slowly adjust pH with sodium hydrate to 7.4, following with filtering. Add 6 μL of stock solution (10 mM) of test compound or control compound to 24 μL of DMSO into the same well to obtain 2 mM stock solutions. Transfer 3 μL of 2 mM solution into 597 μL of transport buffer in one 96 well plate to prepare the 10 μM compound working solution. Shake the plate at 1000 rpm for 10 min. The final concentration of DMSO in the incubation system was 0.5%. Metoprolol, erythromycin, and cimetidine were used as control compounds.
Assays can be conducted using Caco-2 cells to assay transport of a compound or composition For example, Caco-2 plates prepared as described above were removed from the incubator. Monolayers were washed twice with pre-warmed HBSS (25 mM HEPES, pH 7.4), then the plates were incubated at 37° C. for 30 minutes. To determine the rate of drug transport in the apical to basolateral direction, 108 μL of the working solution was added to the Transwell insert (apical compartment), and 8 μL sample was immediately transferred from the apical compartment to 72 μL transport buffer and 240 μL of acetonitrile containing IS (100 nM alprazolam, 200 nM caffeine and 100 nM tolbutamide) in a new 96-well plate as the initial donor sample (A-B). The samples were then vortexed at 1000 rpm for 10 minutes. The wells in the receiver plate (basolateral compartment) were filled with 300 μL of transport buffer. To determine the rate of drug transport in the basolateral to apical direction, 308 μL of the working solution were added to the receiver plate wells (basolateral compartment), and 8 μL sample was immediately transferred from the basolateral compartment to 72 μL transport buffer and 240 μL of acetonitrile containing IS (100 nM alprazolam, 200 nM caffeine and 100 nM tolbutamide) into a new 96-well plate as the initial donor sample (B-A), then Vortexed at 1000 rpm for 10 minutes. The Transwell insert (apical compartment) was filled with 100 μL of transport buffer. […]

Structure (SMILES)	solubility thermodynamic at 24 h [1] [µM]	efflux ratio at 2 h, 10 µM [2]	Papp A→B at 2 h, 10 μM [2] [×10⁻⁶ cm/s]
CCn1cc(C(=O)O)c(=O)c2c(N)c(F)c(N[C@@H]3CC[C@H]3c3ccccc3)cc21 (relative stereo) [Compound I-13]	< 1.2	0.53	5.5
CCn1cc(C(=O)O)c(=O)c2c(N)c(F)c(N[C@@H]3CC[C@@H]3c3ccccc3)cc21 (relative stereo) [Compound I-14]	–	0.58	8.6
CCn1cc(C(=O)O)c(=O)c2c(N)c(F)c(N[C@@H]3C[C@@H]3c3ccccc3)cc21 (relative stereo) [Compound I-23]	< 0.03	0.69	1.1
CCn1cc(C(=O)O)c(=O)c2c(N)c(F)c(N3CCC(N[C@@H]4C[C@H]4c4ccccc4)CC3)cc21 (relative stereo) [Compound I-26]	–	0.85	7.9
CCn1cc(C(=O)O)c(=O)c2c(N)c(F)c(N[C@H]3CC[C@H](N[C@@H]4C[C@H]4c4ccccc4)CC3)cc21 (relative stereo) [Compound I-27]	4.7 (≈ 2.25 µg/mL)	1.96	0.94
CCn1cc(C(=O)O)c(=O)c2c(N)c(F)c(N[C@H]3CC[C@@H](N[C@@H]4C[C@H]4c4ccccc4)CC3)cc21 (relative stereo) [Compound I-28]	4 (≈ 1.91 µg/mL)	0.48	3.1
CCn1cc(C(=O)O)c(=O)c2c(N)c(F)c(NCCN[C@@H]3C[C@H]3c3ccccc3)cc21 (relative stereo) [Compound I-29]	1.93 (≈ 0.819 µg/mL)	0.39	9.1
Nc1c(F)c(N[C@@H]2C[C@H]2c2ccccc2)c(F)c2c1c(=O)c(C(=O)O)cn2C1CC1 (relative stereo) [Compound I-32]	< 0.08	0.47	4.2
CCn1cc(C(=O)O)c(=O)c2cc(F)c(NC3CCCCC3)cc21 [Compound I-1]	–	0.47	31
CCC(CC)n1cc(C(=O)O)c(=O)c2c(C)c(F)c(NC3CCCCC3)cc21 [Compound I-3]	–	0.27	3.3
CCn1cc(C(=O)O)c(=O)c2c(N)c(F)c(NC3CCc4ccccc43)cc21 (stereo not shown) [Compound I-10]	–	0.56	6.3

The remaining lines, values ahead:

solubility thermodynamic at 24 h [1] [µM]	efflux ratio at 2 h, 10 µM [2]	Papp A→B at 2 h, 10 μM [2] [×10⁻⁶ cm/s]	Structure (SMILES)
< 0.01	0.75	1.6	CCn1cc(C#N)c(=O)c2c(N)c(F)c(N[C@@H]3C[C@H]3c3ccccc3)cc21 (relative stereo) [Compound I-38]
–	1.04	9.7	CCn1cc(C(=O)O)c(=O)c2c(N)c(F)c(N(C)CCN[C@H]3C[C@@H]3c3ccccc3)cc21 (relative stereo) [Compound I-50]
< 0.06	0.58	6.4	CCn1cc(C(=O)O)c(=O)c2c(N)cc(N[C@@H]3C[C@H]3c3ccccc3)cc21 (relative stereo) [Compound I-59]
54 (≈ 21.4 µg/mL)	38	0.82	CCn1cc(C(=O)O)c(=O)c2c(N)c(F)c(Nc3ccc([C@@H]4C[C@H]4N)cc3)cc21 (relative stereo) [Compound I-62]
1.6 (≈ 0.721 µg/mL)	1.2	2.4	CCn1cc(C(=O)O)c(=O)c2c(N)c(F)c(NC3CC(N[C@@H]4C[C@H]4c4ccccc4)C3)cc21 (relative stereo) [Compound I-70]
1.2 (≈ 0.541 µg/mL)	0.59	5.9	CCn1cc(C(=O)O)c(=O)c2c(N)c(F)c(NCCN[C@@H]3C[C@]34CCc3ccccc34)cc21 (relative stereo) [Compound I-81]
0.11 (≈ 0.0406 µg/mL)	–	–	CCn1cc(C(=O)O)c(=O)c2c(N)cc(NCCc3ccccc3)c(F)c21 [Compound I-65]
